Laboratory results as given in patent publication US5547975A, “Benzopyranopyrazolyl derivatives for the treatment of inflammation” (priority 1994, dated 1996).

What was measured:
[1] = test system: carrageenan foot pad edema (rat paw edema); experiment: Rat Carrageenan Foot Pad Edema Test; format: in vivo, rat (male Sprague-Dawley); details: oral, @ 30 mg/ka body weight, 3 hours after carrageenan injection
Description: Rat Carrageenan Foot Pad Edema Test
Male Sprague-Dawley rats were selected in each group so that the average body weight was as close as possible. Rats were fasted with free access to water for over sixteen hours prior to the test. […] One hour later a subplantar injection of 0.1 mL of 1% solution of carrageenan/sterile 0.9% saline was administered and the volume of the injected foot was measured with a displacement plethysmometer connected to a pressure transducer with a digital indicator. Three hours after the injection of the carrageenan, the volume of the foot was again measured.

Human COX I = target: T1, Human COX I (Homo sapiens, UniProt P23219); experiment: Evaluation of COX I activity in vitro (recombinant enzyme, PGE2 ELISA); format: biochemical; details: 10 μM arachidonic acid, pre-incubation 10-20 minutes, pH 8.0; read-out: Human COX I ID50
T1 construct: made in house; host or cells: SF9 insect cells, recombinant baculovirus (transfer vector pVL1393)
T1 sequence (P23219 24-599): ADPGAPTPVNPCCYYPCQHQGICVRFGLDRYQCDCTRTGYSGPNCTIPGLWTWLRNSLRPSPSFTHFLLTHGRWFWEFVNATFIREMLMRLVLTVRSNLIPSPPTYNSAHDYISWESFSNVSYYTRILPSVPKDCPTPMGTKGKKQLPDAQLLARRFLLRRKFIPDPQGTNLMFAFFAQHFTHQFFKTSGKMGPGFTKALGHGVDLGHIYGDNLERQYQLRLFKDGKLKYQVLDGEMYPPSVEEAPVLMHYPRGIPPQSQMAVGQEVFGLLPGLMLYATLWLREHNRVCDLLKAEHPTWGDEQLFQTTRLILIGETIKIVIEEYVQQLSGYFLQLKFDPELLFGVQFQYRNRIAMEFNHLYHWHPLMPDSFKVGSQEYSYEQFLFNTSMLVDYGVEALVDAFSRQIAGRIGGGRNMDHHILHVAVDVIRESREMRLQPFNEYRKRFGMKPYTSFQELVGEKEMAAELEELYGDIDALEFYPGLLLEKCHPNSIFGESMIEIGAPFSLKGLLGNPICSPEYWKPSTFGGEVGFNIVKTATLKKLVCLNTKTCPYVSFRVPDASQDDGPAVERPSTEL
Excerpt: (§1) Evaluation of COX I and COX II activity in vitro
(§2) a. Preparation of recombinant COX baculoviruses
(§3) A 2.0 kb fragment containing the coding region of either human or murine COX-I or human or murine COX-II was cloned into a BamH1 site of the baculovirus transfer vector pVL1393 (Invitrogen) to generate the baculovirus transfer vectors for COX-I and COX-II in a manner similar to the method of D. R. O'Reilly et al (Baculovirus Expression Vectors: A Laboratory Manual (1992)). Recombinant baculoviruses were isolated by transfecting 4 μg of baculovirus transfer vector DNA into SF9 insect cells ([…]) along with 200 ng of linearized baculovirus plasmid DNA by the calcium phosphate method. See M. D. Summers and G. E. Smith, A Manual of Methods for Baculovirus Vectors and Insect Cell Culture Procedures, Texas Agric. Exp. Station Bull. 1555 (1987). Recombinant viruses were purified by three rounds of plaque purification and high titer (10E7-10E8 pfu/ml) stocks of virus were prepared. For large scale production, SF9 insect cells were infected in 10 liter fermentors (0.5×10^6 /ml) with the recombinant baculovirus stock such that the multiplicity of infection was 0.1. After 72 hours the cells were centrifuged and the cell pellet homogenized in Tris/Sucrose (50 mM: 25%, pH 8.0) containing 1% 3-[(3-cholamidopropyl)dimethylammonio]-1-propanesulfonate (CHAPS). The homogenate was centrifuged at 10,000'G for 30 minutes, and the resultant supernatant was stored at -80° C. before being assayed for COX activity.
(§4) b. Assay for COX I and COX II activity:
(§5) COX activity was assayed as PGE2 formed/μg protein/time using an ELISA to detect the prostaglandin released. CHAPS-solubilized insect cell membranes containing the appropriate COX enzyme were incubated in a potassium phosphate buffer (50 mM, pH 8.0) containing epinephrine, phenol, and heme with the addition of arachidonic acid (10 μM). Compounds were pre-incubated with the enzyme for 10-20 minutes prior to the addition of arachidonic acid. Any reaction between the arachidonic acid and the enzyme was stopped after ten minutes at 37° C./room temperature by transferring 40 μl of reaction mix into 160 μl ELISA buffer and 25 μM indomethacin. The PGE2 formed was measured by standard ELISA technology (Cayman Chemical).

Human COX II = target: T2, Human COX II (Homo sapiens, UniProt P35354); experiment: Evaluation of COX II activity in vitro (recombinant enzyme, PGE2 ELISA); format: biochemical; details: 10 μM arachidonic acid, pre-incubation 10-20 minutes, pH 8.0; read-out: Human COX II ID50
T2 construct: made in house; host or cells: SF9 insect cells, recombinant baculovirus (transfer vector pVL1393)
T2 sequence (P35354 18-604): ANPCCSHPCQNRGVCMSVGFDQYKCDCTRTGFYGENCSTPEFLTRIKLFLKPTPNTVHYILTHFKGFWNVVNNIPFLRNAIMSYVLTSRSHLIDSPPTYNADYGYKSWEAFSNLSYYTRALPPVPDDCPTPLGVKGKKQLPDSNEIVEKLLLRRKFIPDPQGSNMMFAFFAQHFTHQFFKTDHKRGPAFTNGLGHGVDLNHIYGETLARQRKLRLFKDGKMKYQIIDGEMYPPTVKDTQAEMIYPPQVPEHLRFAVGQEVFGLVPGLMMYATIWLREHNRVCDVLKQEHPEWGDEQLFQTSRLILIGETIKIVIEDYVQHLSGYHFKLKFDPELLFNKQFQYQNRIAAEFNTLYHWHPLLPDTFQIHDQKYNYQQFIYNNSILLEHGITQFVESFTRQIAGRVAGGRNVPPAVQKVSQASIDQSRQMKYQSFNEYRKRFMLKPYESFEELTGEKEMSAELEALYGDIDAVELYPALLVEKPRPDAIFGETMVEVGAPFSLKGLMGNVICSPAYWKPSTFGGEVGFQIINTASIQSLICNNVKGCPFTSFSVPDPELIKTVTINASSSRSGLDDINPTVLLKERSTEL
Description: as §1
The COX II inhibition activity of the compounds of this invention illustrated in the Examples was determined by the following methods.
as §2, §3, §4, §5

[2] = test system: carrageenan-induced hyperalgesic foot withdrawal; experiment: Rat Carrageenan-induced Analgesia Test; format: in vivo, rat (male Sprague-Dawley); details: oral, @ 30 mg/ka body weight, 3 hours after carrageenan injection
Description: Rat Carrageenan-induced Analgesia Test
The analgesia test using rat carrageenan was performed with materials, reagents and procedures essentially as described by Hargreaves, et al., (Pain, 32, 77 (1988)). Male Sprague-Dawley rats were treated as previously described for the Carrageenan Foot Pad Edema test. Three hours after the injection of the carrageenan, the rats were placed in a special plexiglass container with a transparent floor having a high intensity lamp as a radiant heat source, positionable under the floor. After an initial twenty minute period, thermal stimulation was begun on either the injected foot or on the contralateral uninjected foot. A photoelectric cell turned off the lamp and timer when light was interrupted by paw withdrawal. The time until the rat withdraws its foot was then measured. The withdrawal latency in seconds was determined for the control and drug-treated groups, and percent inhibition of the hyperalgesic foot withdrawal determined.

SMILES | RAT PAW EDEMA % Inhibition [1] | IC50 (Human COX I) | IC50 (Human COX II) | ANALGESIA % Inhibition [2]
NS(=O)(=O)c1ccc(-n2nc(C(F)(F)F)c3c2-c2cc(Cl)sc2CS3)cc1 [Example 21, 4-[7-Chloro-1,5-dihydro-3-trifluoromethyl-thieno[3',2':4,5]thiopyrano[3,2-c]pyrazol-1-yl]benzenesulfonamide] | 26% | 8.7 µM | < 0.1 µM | 
COc1ccc2c(c1F)CSc1c(C(F)(F)F)nn(-c3ccc(S(C)(=O)=O)cc3)c1-2 [Example 2, 1,5-Dihydro-6-fluoro-7-methoxy-1-[(4-methylsulfonyl)phenyl]-3-(trifluoromethyl)-[2]benzothiopyrano[4,3-c]pyrazole] |  | > 100 µM | < 0.1 µM | 29%
NS(=O)(=O)c1ccc(-n2nc(C(F)(F)F)c3c2-c2ccc(F)cc2SC3)cc1 [Example 10, 4-[1,4-Dihydro-7-fluoro-3-(trifluoromethyl)-[1]benzothiopyrano[4,3-c]pyrazol-1-yl]benzenesulfonamide] |  | 6.2 µM | < 0.1 µM | 
